Laboratory results published in PubChem BioAssay AID624167 (Sanford-Burnham Center for Chemical Genomics, 2012).
The source made the active and inactive calls.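 The calls were made as follows: active = mean IC50 for reducing PEG3 promoter reporter signal at or below a set limit, with IC50 above the limit in both counter screens; inactive = the rest, including counter screen hits.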

How the values were obtained:
[1] = inhibition of PEG-3 promoter-driven reporter – cell-based, HeLa, luciferase, CREF/GAPDH counter-screen panel, dose response (AID 624167); conditions: CREF/GAPDH counter-screens; GAPDH; mean of runs
PEG-3 [2] = experiment: as above; conditions: HeLa PEG-Prom luciferase reporter, overnight, CREF/GAPDH counter-screens
PEG-3 [3] = target: PEG-3 (UniProt Q6IN02); experiment: as above; conditions: HeLa PEG-Prom luciferase reporter, overnight, CREF/GAPDH counter-screens, mean of runs
Rat fibroblasts (CREF) = experiment: as above; conditions: CREF/GAPDH counter-screens
GAPDH = experiment: as above; conditions: CREF/GAPDH counter-screens
[4] = run 1, dose range 1, individual replicate IC50 per panel
[5] = run 2, dose range 1, individual replicate IC50 per panel

PEG-3 (UniProt Q6IN02), sequence (Q6IN02 whole entry, looked up): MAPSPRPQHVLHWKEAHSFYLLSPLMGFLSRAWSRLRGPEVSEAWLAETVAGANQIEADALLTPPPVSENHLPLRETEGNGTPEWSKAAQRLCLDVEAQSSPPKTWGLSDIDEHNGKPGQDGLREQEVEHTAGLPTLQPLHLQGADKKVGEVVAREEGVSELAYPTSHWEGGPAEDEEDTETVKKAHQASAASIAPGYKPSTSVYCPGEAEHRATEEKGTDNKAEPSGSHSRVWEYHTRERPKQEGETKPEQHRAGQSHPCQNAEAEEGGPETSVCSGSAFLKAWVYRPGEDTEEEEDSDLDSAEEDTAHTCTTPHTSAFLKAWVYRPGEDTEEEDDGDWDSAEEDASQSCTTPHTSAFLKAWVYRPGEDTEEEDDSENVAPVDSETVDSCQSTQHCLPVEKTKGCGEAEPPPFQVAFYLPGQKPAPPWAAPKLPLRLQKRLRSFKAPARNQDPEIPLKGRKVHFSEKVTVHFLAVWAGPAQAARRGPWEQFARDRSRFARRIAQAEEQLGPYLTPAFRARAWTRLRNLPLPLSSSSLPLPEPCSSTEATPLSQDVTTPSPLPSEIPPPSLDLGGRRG

SMILES | IC50 [1] | IC50 (PEG-3 [2]; [4]) | IC50 (PEG-3 [2]; [5]) | IC50 (PEG-3 [3]) | IC50 (Rat fibroblasts (CREF); mean of runs) | IC50 (Rat fibroblasts (CREF); [4]) | IC50 (Rat fibroblasts (CREF); [5]) | IC50 (GAPDH; [4]) | IC50 (GAPDH; [5])
CC(=O)OC1(C)CC(C)C(=O)C(C(O)CC2CC(=O)NC(=O)C2)C1 (stereo unspecified) | < 0.2 µM | 0.221 µM | 0.385 µM | 0.303 µM | < 0.2 µM | < 0.2 µM | < 0.2 µM | < 0.2 µM | < 0.2 µM
CCOc1cccc(/C=N/NC(=S)Nc2cc(S(=O)(=O)N3CCOCC3)ccc2N2CCOCC2)c1O | > 100 µM (inactive) | 9.08 µM | 25.5 µM | 17.3 µM | 72.8 µM (inactive) | > 100 µM | 72.8 µM | > 100 µM | > 100 µM
COc1cc(OC)c2cc(C(=O)N/N=C/c3ccccc3O)[nH]c2c1 | inactive | 4.95 µM | 3.93 µM | 4.44 µM | 28.8 µM | 24.8 µM | 32.9 µM | 75.1 µM | 51.5 µM
COc1ccc(C(NC(=O)C(C)C)c2ccc3cccnc3c2O)cc1 (stereo unspecified) | > 100 µM (inactive) | 3.71 µM | 5.68 µM | 4.7 µM | 23.3 µM | 12.3 µM | 34.3 µM | > 100 µM | > 100 µM
Oc1[nH]c2ccc(Br)cc2c1N=NC(=S)N1CCOCC1 | 13.8 µM | 1.25 µM | 0.885 µM | 1.07 µM | 50.3 µM (inactive) | > 100 µM | 0.611 µM | 18.8 µM | 8.78 µM
Cc1cccc(OCC(=O)NCC(=O)N/N=C/c2cc(Br)cc(Br)c2O)c1 | > 100 µM (inactive) | 9.95 µM | 5.87 µM | 7.91 µM | 47.1 µM | 42.2 µM | 52 µM | > 100 µM | > 100 µM
O=C(CSC1c2ccccc2-c2ccccc21)N/N=C/c1ccccc1O | > 100 µM (inactive) | 3.04 µM | > 100 µM | inactive | 69.5 µM (inactive) | > 100 µM | 38.9 µM | > 100 µM | > 100 µM
O=C(CCn1cnc(-c2ccccc2)c1-c1ccccc1)N/N=C/c1ccccc1O | inactive | 5.32 µM | 4.93 µM | 5.13 µM | 63.2 µM (inactive) | > 100 µM | 26.4 µM | 49.7 µM | > 100 µM
CC1=CC2/C=C(\C)CCC(O)C(O)/C=C/C(=O)C23C(=O)NC(CC(C)C)C3C1C (stereo unspecified) | 7.88 µM | 5.76 µM | 3.79 µM | 4.78 µM | 14.3 µM | 20.1 µM | 8.55 µM | 9.17 µM | 6.59 µM
CCCCC(=O)NC(c1ccccc1OC)c1ccc2cccnc2c1O (stereo unspecified) | inactive | 3.35 µM | 17.8 µM | 10.6 µM | > 100 µM (inactive) | > 100 µM | > 100 µM | 36.5 µM | > 100 µM
O=C(O)c1ccc(CN2C(=O)c3cccc4c([N+](=O)[O-])ccc(c34)C2=O)cc1 | 22.7 µM | 12.1 µM | 8.2 µM | 10.1 µM | 31.5 µM | 29.5 µM | 33.4 µM | 21.9 µM | 23.4 µM
CCC(c1ccc(O)c(O)c1)C(CC)c1ccc(O)c(O)c1 (stereo unspecified) | inactive | 14.2 µM | 5.63 µM | 9.94 µM | 19.9 µM | 23 µM | 16.7 µM | 35.6 µM | 33.7 µM
Cc1ccc(C)c(S(=O)(=O)N2CCN(c3ncnc4sccc34)CC2)c1 | 28.7 µM | 2.58 µM | 2.47 µM | 2.53 µM | 58.7 µM (inactive) | > 100 µM | 17.4 µM | 9.4 µM | 48 µM
CCC(c1nnnn1-c1ccc2c(c1)OCCO2)N1CCC(n2c(=O)[nH]c3ccccc32)CC1 (stereo unspecified) | 10.8 µM | 4.46 µM | 10.2 µM | 7.33 µM | > 100 µM (inactive) | > 100 µM | > 100 µM | 9.08 µM | 12.6 µM
CN(O)C(=S)c1ccccc1 | > 100 µM (inactive) | 10.3 µM | 42.5 µM | inactive | > 100 µM (inactive) | > 100 µM | > 100 µM | > 100 µM | > 100 µM
CC(C)(C)c1ccc(Cn2c(=O)cnc3ccccc32)cc1 | 6.22 µM | 5.23 µM | > 100 µM | inactive | 51 µM (inactive) | > 100 µM | 1.93 µM | 5.99 µM | 6.44 µM
CCCC(=O)NC(c1ccc(C)cc1)c1ccc2cccnc2c1O (stereo unspecified) | inactive | 4.69 µM | 7.19 µM | 5.94 µM | > 100 µM (inactive) | > 100 µM | > 100 µM | > 100 µM | 74.7 µM
O=C(N/N=C/c1c(O)ccc2ccccc12)c1ccc(CO)nc1 | > 100 µM (inactive) | 3.98 µM | 2.72 µM | 3.35 µM | 41.7 µM | 31 µM | 52.5 µM | > 100 µM | > 100 µM
O=C(/C=C/c1ccc(Cl)c([N+](=O)[O-])c1)c1ccc(O)cc1 | 16.6 µM | 8.19 µM | 4.5 µM | 6.34 µM | 26.5 µM | 29.7 µM | 23.2 µM | 17.9 µM | 15.3 µM
COc1cc(CNCCCN2CCOCC2)cc(Br)c1OCc1ccc(Cl)cc1 | 12.3 µM | 9.57 µM | 8.99 µM | 9.28 µM | 14.4 µM | > 80 µM | 14.4 µM | 15.3 µM | 9.28 µM
CN(C)CC1CCC/C(=C\c2ccc(OC(=O)c3ccc(Cl)cc3)cc2)C1=O (stereo unspecified) | inactive | 6.76 µM | 4.86 µM | 5.81 µM | > 100 µM (inactive) | > 100 µM | > 100 µM | 49.8 µM | 57.7 µM
COc1cc2nc(CN3CC=C(c4ccccc4)CC3)[nH]c(=O)c2cc1OC | inactive | 7.71 µM | 5.22 µM | 6.47 µM | > 100 µM (inactive) | > 100 µM | > 100 µM | 60.9 µM | 62.2 µM
C=CCc1cccc(/C=N/NC(=O)C(C)Nc2cccc(C)c2)c1O (stereo unspecified) | > 100 µM (inactive) | 12.2 µM | 1.89 µM | 7.04 µM | > 100 µM (inactive) | > 100 µM | > 100 µM | > 100 µM | > 100 µM
CC(/C=C/c1ccccc1)=N/NC(=O)c1cc([N+](=O)[O-])cc([N+](=O)[O-])c1 | inactive | > 100 µM | 3.58 µM | inactive | 57.3 µM (inactive) | 14.5 µM | > 100 µM | > 100 µM | 9.02 µM
